Assay results: US5102912A, “Hydroxyoctadecadienic acid for the treatment of estrogen-dependent disease” (Kanoldt Arzneimittel GmbH, priority 1990, dated 1992)

Experiments:
aromatase [1] = biological target: T1, aromatase (Homo sapiens, UniProt P11511); assay: Inhibition of aromatase activity, placenta microsomes, substrate androstenedione 10 nM (Example 3); type: biochemical; settings: 10 min
T1 construct: suspension of human placenta microsomes as a source of aromatase enzyme; from tissue; host or cells: human placenta microsomes
T1 sequence (P11511 1-503): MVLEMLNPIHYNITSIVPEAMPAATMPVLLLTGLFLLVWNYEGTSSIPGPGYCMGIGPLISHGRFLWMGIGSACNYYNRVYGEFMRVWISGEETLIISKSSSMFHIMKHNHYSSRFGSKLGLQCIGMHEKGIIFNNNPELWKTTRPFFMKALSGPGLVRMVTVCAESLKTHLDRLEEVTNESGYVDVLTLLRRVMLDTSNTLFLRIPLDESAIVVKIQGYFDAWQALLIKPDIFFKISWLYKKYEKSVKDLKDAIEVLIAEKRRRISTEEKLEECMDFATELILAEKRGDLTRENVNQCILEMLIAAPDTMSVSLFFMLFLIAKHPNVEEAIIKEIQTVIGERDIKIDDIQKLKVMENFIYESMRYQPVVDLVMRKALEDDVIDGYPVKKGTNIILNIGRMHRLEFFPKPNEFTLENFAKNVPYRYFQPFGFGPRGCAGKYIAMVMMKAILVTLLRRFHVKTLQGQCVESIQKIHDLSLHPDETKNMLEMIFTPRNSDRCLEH
Protocol: Inhibitor tests were carried out with a suspension of human placenta microsomes as a source of aromatase enzyme. The substrate used in these competitive inhibition tests was androstenedione.
Experimental conditions for enzyme inhibition
enzyme source: placenta microsomes
substrate: androstenedione (10 nM)
tracer: ^3 H-androstenedione
Co-substrate: NADPH-regenerating system
The substrate, ^3 H-androstenedione was incubated in the presence of aromatase enzyme with and without the acid inhibitor. The aromatization of androstenedione to estradiol was measured by the release of ^3 H2 O in the process of aromatization. Aromatase activity in the presence of 9-hydroxy-10(trans)-12(cis)-octadecadienoic acid was compared with that of a control group without this inhibiting additive. Aromatase activity is shown as percent of reaction in table 2.

[2] = Storage stability of the prepared acid; type: physicochemical
aromatase [3] = biological target: T1, aromatase; assay: Inhibition of aromatase activity, placenta microsomes, substrate androstenedione 100 nM (Example 4); type: biochemical
[4] = Effect in the treatment of estrogen-dependent diseases, keto form compared with hydroxy compound

activity at 1 µg/mL (aromatase [1]; inhibitor 1 mg/l, without inhibitor 100 ± 9.1, read-out: Aromatase Activity (% reaction) with inhibitor) [%]	activity at 10 µg/mL (aromatase [1]; inhibitor 10 mg/l, without inhibitor 100 ± 8.1, read-out: Aromatase Activity (% reaction) with inhibitor) [%]	activity at 100 µg/mL (aromatase [1]; inhibitor 100 mg/l, without inhibitor 100 ± 5.5, read-out: Aromatase Activity (% reaction) with inhibitor) [%]	activity at 1 µg/mL (aromatase [3]; 10 min, inhibitor 1 mg/l, androstenedione 100 nM, 10 minutes, average value ± S.D. (n = 3), without inhibitor 100 ± 9.1, read-out: Aromatase activity (% reaction) with inhibitor) [%]	activity at 10 µg/mL (aromatase [3]; 10 min, inhibitor 10 mg/l, androstenedione 100 nM, 10 minutes, average value ± S.D. (n = 3), without inhibitor 100 ± 8.1, read-out: Aromatase activity (% reaction) with inhibitor) [%]	activity at 100 µg/mL (aromatase [3]; 10 min, inhibitor 100 mg/l, androstenedione 100 nM, 10 minutes, average value ± S.D. (n = 3), without inhibitor 100 ± 5.5, read-out: Aromatase activity (% reaction) with inhibitor) [%]	inhibition of aromatase (in words) (aromatase [3]; Example 4, table 4)	aromatase inhibiting effect relative to the acid in hydroxy form (aromatase [3]; from tables 2 and 4, displacement with respect to the concentration of the inhibitor)	SMILES	storage stability ([2]; even at minus 20° C)	stability compared with the product of Example 1 [2]	effect by comparison with the hydroxy compound [4] [fold]
94.4 ± 1.2	53.8 ± 3.8	16.2 ± 3.2						CCCCC/C=C\C=C\C(O)CCCCCCCC(=O)O (stereo not drawn) [9-hydroxy-10(trans)-12(cis)-octadecadienic acid]	only storable to a limited extent even at minus 20 °C		
			58.3 ± 3.6	19.3 ± 3.4	6.2 ± 2.9	stronger aromatase inhibiting effect	about 10 times stronger	CCCCC/C=C\C=C\C(=O)CCCCCCCC(=O)O [9-oxo-10(trans)-12(cis)-octadecadienic acid]		equally unstable as the product of Example 1	10
